The values below are quoted from earlier work in patent US20230033410A1, “COMPLEX FORMULATION COMPRISING SITAGLIPTIN AND DAPAGLIFLOZIN, AND PREPARATION METHOD THEREFOR” (HANMI PHARM. CO.,LTD., priority 2019, published 2023).

The structures appear in SMILES notation. Like-named read-outs stand apart in the source and are kept apart here.

Usually Tmax stands for the time at which the peak concentration occurs.

For the series the following is noted: plasma.

For `CCOc1ccc(Cc2cc([C@@H]3O[C@H](CO)[C@@H](O)[C@H](O)[C@H]3O)ccc2Cl)cc1` [dapagliflozin, (2S,3R,4R,5S,6R)-2-[4-chloro-3-(4-ethoxybenzyl)phenyl]-6-(hydroxymethyl)tetrahydro-2H-pyran-3,4,5-triol], the Tmax is, setting by setting: (range in brackets) 1 to 2 h; (stated for both drugs) “about 1 hour”.

As for `N[C@@H](CC(=O)N1CCn2c(nnc2C(F)(F)F)C1)Cc1cc(F)c(F)cc1F` [sitagliptin, (R)-3-amino-1-(3-(trifluoromethyl)-5,6-dihydro-[1,2,4]triazolo[4,3-a]pyrazin-7(8H)-yl)-4-(2,4,5-trifluorophenyl)butan-1-one], the Tmax was 1 to 4 h (range in brackets) and “about 1 hour” (stated for both drugs).
